Data: patent publication US20230192705A1, “SHP2 INHIBITORS, COMPOSITIONS AND USES THEREOF” (Betta Pharmaceuticals Co., Ltd, priority 2020, published 2023)

target: T1, SHP2 (Homo sapiens, UniProt Q06124); experiment: SHP2 allosteric inhibitor enzyme activity assay (DiFMUP fluorescence); assay type: biochemical; conditions: class symbols
T1 sequence (Q06124 1-593): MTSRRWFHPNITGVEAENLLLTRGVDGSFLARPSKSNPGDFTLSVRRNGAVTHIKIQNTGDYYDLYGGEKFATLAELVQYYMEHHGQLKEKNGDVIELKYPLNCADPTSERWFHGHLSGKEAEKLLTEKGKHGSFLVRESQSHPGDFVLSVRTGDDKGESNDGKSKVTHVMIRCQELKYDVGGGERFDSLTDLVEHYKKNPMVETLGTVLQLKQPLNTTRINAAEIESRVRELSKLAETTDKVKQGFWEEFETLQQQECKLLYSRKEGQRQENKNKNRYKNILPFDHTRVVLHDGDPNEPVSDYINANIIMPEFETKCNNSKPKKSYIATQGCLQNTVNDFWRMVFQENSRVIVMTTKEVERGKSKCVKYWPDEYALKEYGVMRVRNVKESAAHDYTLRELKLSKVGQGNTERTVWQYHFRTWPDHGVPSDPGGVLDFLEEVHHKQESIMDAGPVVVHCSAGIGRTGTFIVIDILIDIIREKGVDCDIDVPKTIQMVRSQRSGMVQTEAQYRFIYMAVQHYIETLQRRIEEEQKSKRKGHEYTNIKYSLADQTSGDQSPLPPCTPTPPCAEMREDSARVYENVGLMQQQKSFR
Outline: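 SHP2 activated by 0.5 μM IRS1_pY1172(dPEG8)pY1222 peptide, 0.2 ng enzyme per well, 1 h at room temperature with compound (1 μM top, 3-fold series), then DiFMUP substrate 1 h. Buffer: 60 mM HEPES, 75 mM NaCl, 75 mM KCl, 0.05% BRIJ-35, 1 mM EDTA, 5 mM DTT. Fluorescence ex 340/em 450 nm; IC50 by variable-slope fit.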

| IC50 | Structure (SMILES) |
| --- | --- |
| ≤ 20 nM | Cn1ncc2c1CCC=C2c1n[nH]c2nc(N3CCC4(CC3)Cc3ccccc3[C@H]4N)[nH]c(=O)c12 [Example 131, (S)-6-(1-amino-1,3-dihydrospiro[indene-2,4′-piperidin]-1′-yl)-3-(1-methyl-6,7-dihydro-1H-indazol-4-yl)-1,5-dihydro-4H-pyrazolo[3,4-d]pyrimidin-4-one] |
| ≤ 20 nM | N[C@@H]1c2ccccc2CC12CCN(c1nc3[nH]nc(C4=CCCc5ncccc54)c3c(=O)[nH]1)CC2 [Example 112, (S)-6-(1-amino-1,3-dihydrospiro[indene-2,4′-piperidin]-1′-yl)-3-(7,8-dihydroquinolin-5-yl)-1,5-dihydro-4H-pyrazolo[3,4-d]pyrimidin-4-one] |
| ≤ 20 nM | CC1(C)NC=C(c2n[nH]c3nc(N4CCC5(CC4)Cc4ccccc4[C@H]5N)[nH]c(=O)c23)c2ccccc21 [Example 179, (S)-6-(1-amino-1,3-dihydrospiro[indene-2,4′-piperidin]-1′-yl)-3-(1,1-dimethyl-1,2-dihydroisoquinolin-4-yl)-1,5-dihydro-4H-pyrazolo[3,4-d]pyrimidin-4-one] |
| ≤ 20 nM | N[C@@H]1c2ccccc2CC12CCN(c1nc3[nH]nc(C4=CCc5ccccc54)c3c(=O)[nH]1)CC2 [Example 172, (S)-6-(1-amino-1,3-dihydrospiro[indene-2,4′-piperidin]-1′-yl)-3-(1H-inden-3-yl)-1,5-dihydro-4H-pyrazolo[3,4-d]pyrimidin-4-one] |
| ≤ 20 nM | N[C@@H]1c2ccccc2CC12CCN(c1nc3[nH]nc(C4=CC(F)(F)c5ccccc54)c3c(=O)[nH]1)CC2 [Example 175, (S)-6-(1-amino-1,3-dihydrospiro[indene-2,4′-piperidin]-1′-yl)-3-(1,1-difluoro-1H-inden-3-yl)-1,5-dihydro-4H-pyrazolo[3,4-d]pyrimidin-4-one] |
| 20 to 60 nM | CC1(C)C=C(c2n[nH]c3nc(N4CCC5(CC4)Cc4ccccc4C5N)[nH]c(=O)c23)c2sc(N)nc2C1 (stereo not shown) [Example 130, 6-(1-amino-1,3-dihydrospiro[indene-2,4′-piperidin]-1′-yl)-3-(2-amino-5,5-dimethyl-4,5-dihydrobenzo[d]thiazol-7-yl)-1,5-dihydro-4H-pyrazolo[3,4-d]pyrimidin-4-one] |
| ≤ 20 nM | CC1(C)C=C(c2n[nH]c3nc(N4CCC5(CC4)Cc4ccccc4[C@H]5N)[nH]c(=O)c23)c2cnn(CC(F)(F)F)c2C1 [Example 151, (S)-6-(1-amino-1,3-dihydrospiro[indene-2,4′-piperidin]-1′-yl)-3-(6,6-dimethyl-l-(2,2,2-trifluoroethyl)-6,7-dihydro-1H-indazol-4-yl)-1,5-dihydro-4H-pyrazolo[3,4-d]pyrimidin-4-one] |
| ≤ 20 nM | NC1c2ccccc2CC12CCN(c1nc3[nH]nc(C4=CCCn5ccnc54)c3c(=O)[nH]1)CC2 (stereo not shown) [Example 128] |
| ≤ 20 nM | CC1(C)C=C(c2n[nH]c3nc(N4CCC5(CC4)Cc4ccccc4[C@H]5N)[nH]c(=O)c23)c2cccnc2C1 [Example 143, (S)-6-(1-amino-1,3-dihydrospiro[indene-2,4′-piperidin]-1′-yl)-3-(7,7-dimethyl-7,8-dihydroquinolin-5-yl)-1,5-dihydro-4H-pyrazolo[3,4-d]pyrimidin-4-one] |
| ≤ 20 nM | CC1(C)CC=C(c2n[nH]c3nc(N4CCC5(CC4)Cc4ccccc4C5N)[nH]c(=O)c23)c2cccnc21 (stereo not shown) [Example 127, 6-(1-amino-1,3-dihydrospiro[indene-2,4′-piperidin]-1′-yl)-3-(8,8-dimethyl-7,8-dihydroquinolin-5-yl)-1,5-dihydro-4H-pyrazolo[3,4-d]pyrimidin-4-one] |
| ≤ 20 nM | N[C@@H]1c2ccccc2CC12CCN(c1nc3[nH]nc(C4=CCCc5ccccc54)c3c(=O)[nH]1)CC2 [Example 111, (S)-6-(1-amino-1,3-dihydrospiro[indene-2,4′-piperidin]-1′-yl)-3-(3,4-dihydronaphthalen-1-yl)-1,5-dihydro-4H-pyrazolo[3,4-d]pyrimidin-4-one] |

Further lines, the compound ahead of its results:

| Structure (SMILES) | IC50 |
| --- | --- |
| C[C@@H]1OCC2(CCN(c3nc4[nH]nc(C5(c6ccc(O)cc6)CC5)c4c(=O)[nH]3)CC2)[C@@H]1N [Example 311, 6-((3S,4S)-4-amino-3-methyl-2-oxa-8-azaspiro[4.5]decan-8-yl)-3-(1-(4-hydroxyphenyl)cyclopropyl)-1,5-dihydro-4H-pyrazolo[3,4-d]pyrimidin-4-one] | 20 to 60 nM |
| C[C@@H]1OCC2(CCN(c3nc4[nH]nc(C5(c6cccc(F)c6)CC5)c4c(=O)[nH]3)CC2)[C@@H]1N [Example 293, 6-((3S,4S)-4-amino-3-methyl-2-oxa-8-azaspiro[4.5]decan-8-yl)-3-(1-(3-fluorophenyl)cyclopropyl)-1,5-dihydro-4H-pyrazolo[3,4-d]pyrimidin-4-one] | 20 to 60 nM |
| COc1cccc(C2(c3n[nH]c4nc(N5CCC6(CC5)Cc5ccccc5[C@H]6N)[nH]c(=O)c34)CCC2)c1 [Example 95, (S)-6-(1-amino-1,3-dihydrospiro[indene-2,4′-piperidin]-1′-yl)-3-(1-(3-methoxyphenyl)cyclobutyl)-1,5-dihydro-4H-pyrazolo[3,4-d]pyrimidin-4-one] | ≤ 20 nM |
| N[C@@H]1c2ccccc2CC12CCN(c1nc3[nH]nc(C4(c5ccnc(NC6CC6)c5)CC4)c3c(=O)[nH]1)CC2 [Example 29, (S)-6-(1-amino-1,3-dihydrospiro[indene-2,4′-piperidin]-1′-yl)-3-(1-(2-(cyclopropylamino)pyridin-4-yl)cyclopropyl)-1,5-dihydro-4H-pyrazolo[3,4-d]pyrimidin-4-one] | ≤ 20 nM |
| N[C@@H]1c2ccccc2CC12CCN(c1nc3[nH]nc(C4(c5ccc6nccnc6c5)CC4)c3c(=O)[nH]1)CC2 [Example 32, (S)-6-(1-amino-1,3-dihydrospiro[indene-2,4′-piperidin]-1′-yl)-3-(1-(quinoxalin-6-yl)cyclopropyl)-1,5-diliydro-4H-pyrazolo[3,4-d]pyrimidin-4-one] | 20 to 60 nM |
| N[C@@H]1c2cc(Cl)ccc2CC12CCN(c1nc3[nH]nc(C4(c5ccccc5)CC4)c3c(=O)[nH]1)CC2 [Example 194, (S)-6-(1-amino-6-chloro-1,3-dihydrospiro[indene-2,4′-piperidin]-1′-yl)-3-(1-phenylcyclopropyl)-1,5-dihydro-4H-pyrazolo[3,4-d]pyrimidin-4-one] | ≤ 20 nM |
| N[C@@H]1c2ccccc2CC12CCN(c1nc3[nH]nc(C4(c5ccc6ncccc6c5)CC4)c3c(=O)[nH]1)CC2 [Example 14, (S)-6-(1-amino-1,3-dihydrospiro[indene-2,4′-piperidin]-1′-yl)-3-(1-(quinolin-6-yl)cyclopropyl)-1,5-dihydro-4H-pyrazolo[3,4-d]pyrimidin-4-one] | ≤ 20 nM |
| N#Cc1cc(C2(c3n[nH]c4nc(N5CCC6(CC5)Cc5ccccc5[C@H]6N)[nH]c(=O)c34)CC2)ccn1 [Example 26, (S)-4-(1-(6-(1-amino-1,3-dihydrospiro[indene-2,4′-piperidin]-1′-yl)-4-oxo-4,5-dihydro-1H-pyrazolo[3,4-d]pyrimidin-3-yl)cyclopropyl)picolinonitrile] | ≤ 20 nM |
